Results reported in ChEMBL document CHEMBL1201862, “PubChem BioAssay data set” (2004).
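All cell lines were grown in 96-well plates and treated with compound for 48 hours. The concentration for 50% growth inhibition is given as GI50.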 Activity calls are given as the source filed them. No stated cut-off is given here; in the data, active = GI50 up to about 1.1 µM and inactive = higher.

Assays:
Test in all cases: growth of human tumour cells (NCI), 48 h
CCRF-CEM = system: CCRF-CEM
COLO 205 = system: COLO 205
EKVX = system: EKVX
HL-60 = system: HL-60
HOP-92 = system: HOP-92
IGROV-1 = system: IGROV-1
MOLT-4 = system: MOLT-4
NCI-H460 = system: NCI-H460
OVCAR-3 = system: OVCAR-3
OVCAR-8 = system: OVCAR-8
SF-268 = system: SF-268
SK-MEL-28 = system: SK-MEL-28
SK-OV-3 = system: SK-OV-3
SNB-75 = system: SNB-75
TK-10 = system: TK-10
CAKI-1 = system: CAKI-1
NCI-H522 = system: NCI-H522
LOX IMVI = system: LOX IMVI

Measured: GI50

N#Cc1c(-c2ccccc2)c(-c2ccccc2)cc2c(=O)c3ccc(Cl)cc3[nH]c12
inactive: CCRF-CEM > 100 µM | COLO 205 > 100 µM | EKVX > 100 µM | HL-60 > 100 µM | HOP-92 > 100 µM | IGROV-1 > 100 µM | MOLT-4 > 100 µM | NCI-H460 > 100 µM | OVCAR-3 > 100 µM | OVCAR-8 > 100 µM | SF-268 > 100 µM | SK-MEL-28 > 100 µM | SK-OV-3 > 100 µM | SNB-75 > 100 µM | TK-10 > 100 µM

Cc1ccc(/N=N/C(C(=O)c2ccccc2)C(=O)c2ccccc2)cc1
inactive: CAKI-1 27.4 µM | CCRF-CEM 10.9 µM | COLO 205 22.6 µM | EKVX 30.7 µM | HL-60 9.08 µM | HOP-92 13.6 µM | IGROV-1 31.2 µM | MOLT-4 10.2 µM | NCI-H522 17.3 µM | OVCAR-3 29.1 µM | OVCAR-8 28.6 µM | SF-268 29.8 µM | SK-MEL-28 31.6 µM | SK-OV-3 47.1 µM | SNB-75 20.6 µM | TK-10 41.4 µM

CCOC(=O)C12CCCC1(O)N(NC(N)=O)C(C)=C2C(=O)OC (centres undefined)
inactive: CAKI-1 > 100 µM | CCRF-CEM > 100 µM | COLO 205 > 100 µM | EKVX > 100 µM | HL-60 > 100 µM | HOP-92 > 100 µM | IGROV-1 > 100 µM | LOX IMVI > 100 µM | MOLT-4 > 100 µM | NCI-H460 > 100 µM | NCI-H522 > 100 µM | OVCAR-3 > 100 µM | OVCAR-8 > 100 µM | SF-268 > 100 µM | SK-MEL-28 > 100 µM | SK-OV-3 > 100 µM | TK-10 > 100 µM

Nc1ccc2nc(Nc3ccc(F)cc3)cnc2c1
inactive: CAKI-1 > 100 µM | CCRF-CEM 30.5 µM | COLO 205 > 100 µM | EKVX > 100 µM | HL-60 54.7 µM | LOX IMVI > 100 µM | MOLT-4 27.7 µM | NCI-H460 > 100 µM | NCI-H522 44.4 µM | OVCAR-3 90.4 µM | OVCAR-8 > 100 µM | SF-268 74.5 µM | SK-MEL-28 > 100 µM | SNB-75 > 100 µM | TK-10 87.3 µM

O=C1CC[C@H](NC(=O)Cc2ccccc2)C(=O)N1 [ANTINEOPLASTON A10]
inactive: CAKI-1 > 1250 µM | CCRF-CEM > 1250 µM | COLO 205 > 1250 µM | EKVX > 1250 µM | HL-60 > 1250 µM | IGROV-1 > 1250 µM | LOX IMVI > 1250 µM | MOLT-4 > 1250 µM | NCI-H460 > 1250 µM | NCI-H522 > 1250 µM | OVCAR-8 > 1250 µM | SF-268 > 1250 µM | SK-MEL-28 > 1250 µM | SK-OV-3 > 1250 µM | SNB-75 877 µM | TK-10 > 1250 µM

N#Cc1ccc(Cc2ccccn2)cc1Cl
inactive: CAKI-1 > 100 µM | CCRF-CEM > 100 µM | COLO 205 > 100 µM | EKVX > 100 µM | HL-60 > 100 µM | HOP-92 > 100 µM | IGROV-1 > 100 µM | LOX IMVI > 100 µM | MOLT-4 > 100 µM | NCI-H460 > 100 µM | NCI-H522 > 100 µM | OVCAR-8 > 100 µM | SF-268 > 100 µM | SK-MEL-28 > 100 µM | SK-OV-3 > 100 µM | TK-10 > 100 µM

O=C1[C@@H]2C(c3ccccc3Br)=NO[C@@H]2C(=O)N1c1ccc(Cc2ccc(N3C(=O)[C@H]4C(c5ccccc5Br)=NO[C@H]4C3=O)cc2)cc1
inactive: CAKI-1 > 100 µM | CCRF-CEM > 100 µM | COLO 205 > 100 µM | EKVX > 100 µM | HL-60 > 100 µM | HOP-92 > 100 µM | IGROV-1 > 100 µM | LOX IMVI > 100 µM | MOLT-4 > 100 µM | NCI-H460 > 100 µM | OVCAR-3 > 100 µM | OVCAR-8 > 100 µM | SF-268 > 100 µM | SK-MEL-28 > 100 µM | SK-OV-3 > 100 µM | SNB-75 77.3 µM | TK-10 > 100 µM

COc1ccc(C(=C(C#N)C#N)c2ccc(OC)cc2)cc1
inactive: CAKI-1 > 100 µM | CCRF-CEM 33 µM | COLO 205 > 100 µM | EKVX > 100 µM | HL-60 > 100 µM | IGROV-1 > 100 µM | LOX IMVI > 100 µM | MOLT-4 > 100 µM | NCI-H460 > 100 µM | NCI-H522 30 µM | OVCAR-3 > 100 µM | OVCAR-8 > 100 µM | SF-268 > 100 µM | SK-MEL-28 > 100 µM | TK-10 > 100 µM

Cc1cc([N+](=O)[O-])c(C)c2c1[nH]c1ccc(O)cc12
inactive: CAKI-1 > 100 µM | CCRF-CEM 23.4 µM | COLO 205 64.6 µM | EKVX > 100 µM | HL-60 16.2 µM | LOX IMVI 61.5 µM | MOLT-4 59.2 µM | NCI-H460 > 100 µM | NCI-H522 > 10 µM | OVCAR-3 60.4 µM | OVCAR-8 > 100 µM | SF-268 > 100 µM | SK-MEL-28 > 100 µM | SNB-75 > 100 µM | TK-10 > 100 µM

CC1=CCC23C(C1)OC(Br)(C=CC2(C)O)C3(C)C (centres undefined)
inactive: CAKI-1 > 100 µM | CCRF-CEM > 100 µM | COLO 205 > 100 µM | EKVX > 100 µM | HL-60 > 100 µM | HOP-92 > 100 µM | IGROV-1 > 100 µM | LOX IMVI > 100 µM | NCI-H460 > 100 µM | OVCAR-8 > 100 µM | SF-268 > 100 µM | SK-MEL-28 > 100 µM | SNB-75 > 100 µM | TK-10 > 100 µM

C[N+](C)(C)CC(=O)NC(=O)N/N=C\C(CC#N)CN(Cc1ccccc1)Cc1ccccc1 (centres undefined)
inactive: CAKI-1 > 100 µM | CCRF-CEM > 100 µM | COLO 205 > 100 µM | EKVX > 100 µM | HL-60 > 100 µM | IGROV-1 > 100 µM | LOX IMVI > 100 µM | MOLT-4 > 100 µM | NCI-H460 > 100 µM | NCI-H522 > 100 µM | OVCAR-3 > 100 µM | OVCAR-8 > 100 µM | SF-268 > 100 µM | SK-MEL-28 > 100 µM | SK-OV-3 > 100 µM | SNB-75 > 100 µM | TK-10 > 100 µM

CC(=O)OC1CC2CCN3C(=O)c4cc5c(cc4[C@H](C1OC(C)=O)C23)OCO5 (some centres undefined)
inactive: CCRF-CEM > 100 µM | COLO 205 > 100 µM | EKVX > 100 µM | HL-60 > 100 µM | IGROV-1 > 100 µM | LOX IMVI > 100 µM | MOLT-4 > 100 µM | NCI-H460 > 100 µM | NCI-H522 > 100 µM | OVCAR-3 > 100 µM | OVCAR-8 > 100 µM | SF-268 > 100 µM | SK-MEL-28 > 100 µM | SK-OV-3 > 100 µM | SNB-75 > 100 µM | TK-10 > 100 µM
